Source: patent publication US6211439A, “Herbicide resistance in plants” (MGI Pharma, Inc, priority 1995, dated 2001)
Where two headings read alike, the source gives them in different places.

Tested on: Black Mexican Sweet Corn tissue
Experiment: Free amino acid levels in Black Mexican Sweet Corn suspension cultures
Assay type: cell-based, maize
Conditions: for activity at 10 µM / fold induction at 10 µM: Zea mays; for activity at 10 µM: After 48 hours of herbicide exposure; for fold induction at 10 µM: over a period of 48 hours, vs control cultures
Description: Suspension culture cells were treated for 3.5 hours or 48 hours with 1×10^-5 M 997. Cells were removed from suspension by filtration and 1 gram fresh weight quantities were ground with sand with a mortar and pestle in 1 ml 5% TCA. Four ml of 5% TCA were added and the extract centrifuged at 10,000×g for 10 minutes. The pellet was reextracted and the supernatants combined and subjected to cation exchange chromatography. The samples were applied to Bond Elut SCX columns (Analytichem International Inc., Harbor City, Calif.) which had been equilibrated with 5% TCA. Following sample application, the columns were washed with 5 ml distilled, deionized water, and the amino acids were eluted with 2 ml aliquots of 5% v/v triethylamine. The aliquots were combined (6 ml), lyophilized, and subjected to amino acid analysis with a Kontron Liquemat III amino acid analyzer (Hesber, Middlesex TW5 OQU, England).

[1] = 1 × 10^-5 M 997, 3.5 hr., Estimated

CC(C)C1(C)NC(c2ncccc2C(=O)O)=NC1=O (stereo not drawn) [compound 997, 2-(5-isopropyl-5-methyl-4-oxo-2-imidazolin-2-yl)nicotinic acid]
Free asp level (1 × 10^-5 M 997, 3.5 hr.): 175 nmol per g fresh weight tissue | Free cystine (Oxidized cysteine) level (1 × 10^-5 M 997, 3.5 hr.): 103 nmol per g fresh weight tissue | Free glu level (1 × 10^-5 M 997, 3.5 hr.): 360 nmol per g fresh weight tissue | Free gly level (1 × 10^-5 M 997, 3.5 hr.): 98 nmol per g fresh weight tissue | Free his level (1 × 10^-5 M 997, 3.5 hr.): 184 nmol per g fresh weight tissue | Free ile level (1 × 10^-5 M 997, 3.5 hr.): 120 nmol per g fresh weight tissue | Free leu level (1 × 10^-5 M 997, 3.5 hr.): 120 nmol per g fresh weight tissue | Free lys level (1 × 10^-5 M 997, 3.5 hr.): 212 nmol per g fresh weight tissue | Free met level (1 × 10^-5 M 997, 3.5 hr.): 100 nmol per g fresh weight tissue | Free phe level (1 × 10^-5 M 997, 3.5 hr.): 151 nmol per g fresh weight tissue | Free ser level (1 × 10^-5 M 997, 3.5 hr.): 540 nmol per g fresh weight tissue | Free thr level (1 × 10^-5 M 997, 3.5 hr.): 89 nmol per g fresh weight tissue | Free tyr level (1 × 10^-5 M 997, 3.5 hr.): 112 nmol per g fresh weight tissue | Free val level (1 × 10^-5 M 997, 3.5 hr.): 355 nmol per g fresh weight tissue | Free ala level [1]: 600 nmol per g fresh weight tissue | Free arg level [1]: 60 nmol per g fresh weight tissue | Free trp level [1]: 30 nmol per g fresh weight tissue | Free ala level (1 × 10^-5 M 997, 48 hr.): 455 nmol per g fresh weight tissue | Free arg level (1 × 10^-5 M 997, 48 hr.): 55 nmol per g fresh weight tissue | Free asp level (1 × 10^-5 M 997, 48 hr.): 100 nmol per g fresh weight tissue | Free cystine (Oxidized cysteine) level (1 × 10^-5 M 997, 48 hr.): 435 nmol per g fresh weight tissue | Free glu level (1 × 10^-5 M 997, 48 hr.): 175 nmol per g fresh weight tissue | Free gly level (1 × 10^-5 M 997, 48 hr.): 60 nmol per g fresh weight tissue | Free his level (1 × 10^-5 M 997, 48 hr.): 310 nmol per g fresh weight tissue | Free ile level (1 × 10^-5 M 997, 48 hr.): 38 nmol per g fresh weight tissue | Free leu level (1 × 10^-5 M 997, 48 hr.): 16 nmol per g fresh weight tissue | Free lys level (1 × 10^-5 M 997, 48 hr.): 240 nmol per g fresh weight tissue | Free met level (1 × 10^-5 M 997, 48 hr.): 405 nmol per g fresh weight tissue | Free phe level (1 × 10^-5 M 997, 48 hr.): 195 nmol per g fresh weight tissue | Free ser level (1 × 10^-5 M 997, 48 hr.): 1160 nmol per g fresh weight tissue | Free trp level (1 × 10^-5 M 997, 48 hr.): 30 nmol per g fresh weight tissue | Free tyr level (1 × 10^-5 M 997, 48 hr.): 130 nmol per g fresh weight tissue | Free val level (1 × 10^-5 M 997, 48 hr.): 48 nmol per g fresh weight tissue | activity at 10 µM (read-out: free isoleucine level relative to untreated cell cultures): 31% | activity at 10 µM (read-out: free leucine level relative to untreated cell cultures): 8% | activity at 10 µM (read-out: free valine level relative to untreated cell cultures): 12% | fold induction at 10 µM (read-out: increase of free cysteine during herbicide exposure): 24 | fold induction at 10 µM (read-out: increase of free methionine during herbicide exposure): 8 | fold induction at 10 µM (read-out: increase of free serine during herbicide exposure): 3
